The results in this text go back to PubChem BioAssay (NCI).

Common to all, as to test: NCI-60 cell line screen, 48 h
Assay [1] has as its system CCRF-CEM leukemia.
The test system of assay [2] is COLO 205 colon.
Assay [3] deals with HOP-92 NSCLC.
In assay [4] the test system is KM12 colon.
The subject of assay [5] is M14 melanoma.
Assay [6] relates to MCF7 breast.
The test system of assay [7] is NCI-H460 lung.
The test system of assay [8] is NCI-H522 lung.
Assay [9] has as its system T-47D breast.
The subject of assay [10] is UACC-257 melanoma.

Where “and” joins values, the source holds several entries; their conditions need not be identical. Equal values may be shown once.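 Cells were grown in 96-well plates and exposed to each compound for 48 hours at five concentrations; endpoints were interpolated linearly between bracketing concentrations, or set to the highest concentration if not reached. The concentration for 50% growth inhibition is given as GI50. At the TGI there is no net growth.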

On to `O=C1C2C(c3ccccc3)NC(c3ccccc3)C1C(c1ccccc1)NC2c1ccccc1` (stereo not given), for which the TGI in [1], in [2], in [3], in assay [4], in assay [5] and in assay [6] was more than 100 µM each time. For the same compound, the TGI in assay [7], in assay [8], in [9] and in [10] was more than 100 µM throughout.

For the compound `O=c1oc2cc(N=Cc3ccc4c(c3)OCO4)ccc2c2ccccc12`, the TGI in [1], in assay [2], in assay [3], in assay [4], in assay [5] and in [6] was more than 100 µM throughout. Further, the TGI in assay [7], in [8], in assay [9] and in assay [10] was more than 100 µM in each case.

For `CCCCCCCCCCCCOC1C(C(COC2OC(C3COC(C)(C)O3)C3OC(C)(C)OC23)NC(=O)NS(=O)(=O)c2ccccc2)OC2OC(C)(C)OC21` (stereo not given), the GI50 was 2.34 µM in assay [1]; 4.37 µM in [2]; 2.39 µM in assay [3]; 5.15 µM in [4]; 5.23 µM in assay [5]; 2.98 µM in assay [6]. In addition, the GI50 in assay [7] was 3.04 µM; in assay [8] it was 6.56 µM; in assay [9], 8.66 µM; in assay [10], 4 µM. For the same compound, the TGI in assay [1] came to 7.49 µM; in assay [2], 20.7 µM; in assay [3] it was 8.52 µM; in assay [4] it was 31.5 µM; in [5] it was 18.9 µM; in assay [6] it was 12.9 µM. The TGI in [7] is 12.6 µM; in [8], 32.8 µM; in assay [9], 39.5 µM; in [10], 16.5 µM.

With `CC(C)COCC(CN(Cc1ccccc1)c1ccccc1)N1CCCC1` (stereo not given), the GI50 in [1] was 2.71 µM; in [2] it was 1.53 µM; in assay [3], 1.66 µM; in assay [4] it was 3.54 µM; in assay [5], 2.3 µM; in assay [6], 2.06 µM. Moreover, the GI50 in [7] was 2.54 µM; in assay [8], 1.61 µM; in assay [9], 1.74 µM; in assay [10], 3.28 µM. For the same compound, the TGI came out at 13.7 µM in assay [1]; 3.52 µM in assay [2]; 6.88 µM in [3]; 13.7 µM in assay [4]; 5.76 µM in assay [5]; 4.78 µM in assay [6]. Besides, the TGI in [7] turned out to be 8.14 µM; in assay [8] it was 3.35 µM; in assay [9], 6.49 µM; in assay [10] it was 15.3 µM.

For `NC1=C(c2nc(-c3ccccc3)cs2)C(c2ccc(Br)cc2)c2c(c3ccccc3oc2=O)O1` (stereo not given), the GI50 in assay [1] is 66.9 µg/mL; in [2], 78.1 µg/mL; in [3], 38.4 µg/mL; in assay [4], more than 150 µg/mL; in assay [5], 90.1 µg/mL; in [6], more than 150 µg/mL. Besides, the GI50 in assay [7] is 66.8 µg/mL; in assay [8], 47.1 µg/mL; in assay [9] it was 44.3 µg/mL; in [10] it was more than 150 µg/mL. The TGI in assay [1] is more than 150 µg/mL; in assay [2], more than 150 µg/mL; in assay [3], 102 µg/mL; in assay [4], more than 150 µg/mL; in [5], more than 150 µg/mL; in assay [6], more than 150 µg/mL. Also, the TGI in assay [7], in assay [8], in assay [9] and in assay [10] was more than 150 µg/mL throughout.

On to `O=P(CCCCP(=O)(c1ccccc1)c1ccccc1)(c1ccccc1)c1ccccc1.[Cl][Sn]([Cl])([c]1ccccc1)[c]1ccccc1`, for which the GI50 is 0.224 µM in [1]; 1.78 µM in [2]; 1.56 µM in assay [3]; 3.05 µM in [4]; 1.77 µM in assay [5]; 0.876 µM in assay [6]. In addition, the GI50 in assay [7] is 6.51 µM; in assay [8], 0.0514 µM; in [9], 0.073 µM; in assay [10] it was 1.68 µM. For the same compound, the TGI in assay [1] stood at 2.39 µM; in assay [2], 3.98 µM; in assay [3], 3.18 µM; in [4], 10.5 µM; in [5], 3.81 µM; in [6], 2.64 µM. The TGI in assay [7] stood at 15.9 µM; in assay [8], 0.208 µM; in [9], 0.415 µM; in assay [10], 3.31 µM.

For `O=C(c1ccccc1)C(Br)C(Br)c1cccc([N+](=O)[O-])c1` (stereo not given), the GI50 is 0.574 µM in [1]; 1.86 µM in [2]; 1.55 µM in assay [3]; 1.61 µM in [4]; 1.78 µM in [5]; 1.28 µM in assay [6]. Besides, the GI50 in [7] is 3.12 µM; in assay [8], 1.11 µM; in assay [9], 2.13 µM; in assay [10], 1.8 µM. Moreover, the TGI in assay [1] was determined as 2.78 µM; in [2], 3.46 µM; in assay [3], 3.89 µM; in assay [4], 3.05 µM; in assay [5] it was 3.17 µM; in assay [6], 3.63 µM. For the same compound, the TGI in [7] came out at 14.9 µM; in [8], 2.57 µM; in assay [9], 5.65 µM; in [10], 3.89 µM.

`CC1(O)CC(c2nc(-c3ccc4ccc(-c5ccccc5)nc4c3)c3c(N)nccn23)C1` (stereo not given): the GI50 was 9.89 µM and > 10 µM in assay [1]; 0.346 µM and 0.0989 µM in assay [2]; 0.0272 µM and 0.0625 µM in assay [3]; 4.31 µM and 3.88 µM in assay [4]; 11.5 µM and > 10 µM in assay [5]; 0.122 µM and 0.332 µM in [6]. Moreover, the GI50 in assay [7] is 2.7 µM and 1.5 µM; in assay [8] it was 12 µM and > 10 µM; in assay [9] it was 3.94 µM and 2.82 µM; in assay [10] it was 5.68 µM and > 10 µM. Moreover, the TGI in assay [1] was more than 100 µM; in assay [2], 14.2 µM and 4.07 µM; in assay [3], 1.15 µM and 1.43 µM; in [4], 19.4 µM and > 10 µM; in assay [5], 31.1 µM and > 10 µM; in assay [6], more than 43.3 µM. In addition, the TGI in assay [7] was 24.8 µM and > 10 µM; in assay [8] it was 35.5 µM and > 10 µM; in assay [9], 24.1 µM and > 10 µM; in assay [10], 48.2 µM and > 10 µM.
